Source: US8048879B2, “Substituted 4,5,6,7-tetrahydro-isoxazolo[4,5-c]pyridine compounds and use thereof for producing medicaments” (Gruenenthal GmbH, priority 2005, dated 2011)

Biological target: T1, 5-HT transporter (Rattus norvegicus, UniProt P31652)
T1 construct: from tissue; host or cells: rat brain (medulla and pons), synaptosomes, P2 fraction
Assay: 5-HT uptake inhibition, synaptosomes from rat brain (medulla and pons)
Type: biochemical
Text: b) Method for Determining Noradrenalin and 5-HT Uptake Inhibition:
Synaptosomes from rat brain regions are freshly isolated for in vitro studies, as described in the publication “The isolation of nerve endings from brain” by E. G. Gray and V. P. Whittaker, J. Anatomy 96, pages 79-88, 1962. The corresponding literature description is hereby introduced as a reference and is deemed to be part of the disclosure.
The tissue (hypothalamus for the determination of noradrenalin uptake inhibition and medulla and pons for the determination of 5-HT uptake inhibition) is homogenised in ice-cooled 0.32 M sucrose (100 mg of tissue/1 mL) in a glass homogeniser with Teflon pestle using five complete up and down strokes at 840 revolutions/minute.
The homogenate is centrifuged at 4° C. for 10 minutes at 1000 g. After subsequent centrifugation at 17000 g for 55 minutes, the synaptosomes (P2 fraction) are obtained, which are resuspended in 0.32 M […] (0.5 mL/100 mg of original weight).
The particular uptake is measured in a 96-well microtitre plate. The volume is 250 μL and the incubation proceeds at room temperature (approx. 20-25° C.) under an O2 atmosphere.
The incubation time is 7.5 minutes for [^3H]-NA and 5 minutes for [^3H]-5-HT. The 96 samples are then filtered through a Unifilter GF/B® microtitre plate (Packard) and washed with 200 mL of incubated buffer using a “Brabdel MPXRI-96T Cell-Harvester”. The Unifilter GF/B plate is dried for 1 hour at 55° C. The plate is then sealed with a Back Seal® (Packard) and 35 μL of scintillation fluid are added per well (Ultima Gold®, Packard). After sealing with a top Seal® (Packard) and establishing an equilibrium (around 5 hours), radioactivity is determined in a “Trilux 1450 Microbeta” (Wallac).
The quantity of protein used in the above determination corresponds to the values known from the literature, as for example described in “Protein measurement with the folin phenol reagent”, Lowry et al., J. Biol. Chem., 193, 265-275, 1951.
A detailed description of the method may additionally be found in the literature, for example in M. Ch. Frink, H.-H. Hennies, W. Engelberger, M. Haurand and B. Wilffert (1996) Arzneim.-Forsch./Drug Res. 46 (III), 11, 1029-1036.
The following characteristics were determined for the NA or 5-HT transporter: […]

T1 sequence (P31652 whole entry): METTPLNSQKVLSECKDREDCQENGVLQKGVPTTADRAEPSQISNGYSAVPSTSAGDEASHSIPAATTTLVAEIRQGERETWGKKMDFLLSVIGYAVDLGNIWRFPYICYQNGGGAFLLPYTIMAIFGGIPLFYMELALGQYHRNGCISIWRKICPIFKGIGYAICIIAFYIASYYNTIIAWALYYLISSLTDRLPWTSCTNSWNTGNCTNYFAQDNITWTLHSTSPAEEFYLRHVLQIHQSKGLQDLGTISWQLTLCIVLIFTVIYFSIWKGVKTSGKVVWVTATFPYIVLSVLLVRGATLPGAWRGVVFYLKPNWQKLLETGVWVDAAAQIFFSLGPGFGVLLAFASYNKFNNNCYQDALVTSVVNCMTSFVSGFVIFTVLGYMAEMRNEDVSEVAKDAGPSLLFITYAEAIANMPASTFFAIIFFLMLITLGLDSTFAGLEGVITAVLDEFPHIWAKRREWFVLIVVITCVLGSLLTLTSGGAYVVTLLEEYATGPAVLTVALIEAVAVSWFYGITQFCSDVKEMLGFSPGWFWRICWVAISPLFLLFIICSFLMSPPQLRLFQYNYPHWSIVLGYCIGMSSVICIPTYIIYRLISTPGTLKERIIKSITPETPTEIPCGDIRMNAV

| inhibition at 10 µM [%] | Compound | 5-HT uptake (rat), 10 μM, % inhibition [%] |
| --- | --- | --- |
| – | COCCNC(=O)c1noc2c1CN(C(=O)Nc1cccc(OC)c1)CC2 [Example 1, 6,7-dihydro-4H-isoxazolo[4,5-c]pyridine-3,5-dicarboxylic acid 3-[(2-methoxy-ethyl) amide] 5-[(3-methoxyphenyl) amide]] | 47 |
| – | O=C(NC1CCCC1)c1noc2c1CN(C(=O)NCc1ccc(F)cc1)CC2 [Example 2, 6,7-dihydro-4H-isoxazolo[4,5-c]pyridine-3,5-dicarboxylic acid 3-cyclopentyl amide 5-(4-fluorobenzyl amide)] | 41 |
| – | O=C(Nc1ccccc1)c1noc2c1CN(C(=O)Nc1ccc(OC(F)(F)F)cc1)CC2 [Example 3, 6,7-dihydro-4H-isoxazolo[4,5-c]pyridine-3,5-dicarboxylic acid 3-phenyl amide 5-[(4-trifluoromethoxy-phenyl) amide]] | 45 |
| – | COCCNC(=O)c1noc2c1CN(C(=O)Nc1ccc(C)c([N+](=O)[O-])c1)CC2 [Example 5, 6,7-dihydro-4H-isoxazolo[4,5-c]pyridine-3,5-dicarboxylic acid 3-[(2-methoxy-ethyl) amide]5-[(4-methyl-3-nitro-phenyl) amide]] | 47 |
| – | CCOC(=O)CCNC(=O)c1noc2c1CN(C(=O)Nc1cc(F)ccc1F)CC2 [Example 6] | 43 |
| – | CCCCOc1ccc(NC(=O)N2CCc3onc(C(=O)NCCOC)c3C2)cc1 [Example 7, 6,7-dihydro-4H-isoxazolo[4,5-c]pyridine-3,5-dicarboxylic acid 5-[(4-butoxy-phenyl) amide] 3-[(2-methoxy-ethyl) amide]] | 44 |
| – | Cc1ccc(NC(=O)N2CCc3onc(C(=O)NCc4cccs4)c3C2)cc1[N+](=O)[O-] [Example 9, 6,7-dihydro-4H-isoxazolo[4,5-c]pyridine-3,5-dicarboxylic acid 5-[(4-methyl-3-nitro-phenyl) amide] 3-[(thiophen-2-ylmethyl) amide]] | 45 |
| – | CCSCCNC(=O)c1noc2c1CN(C(=O)Nc1cccc(OC)c1)CC2 [Example 11, 6,7-dihydro-4H-isoxazolo[4,5-c]pyridine-3,5-dicarboxylic acid 3-[(2-ethylsulfanyl-ethyl) amide]5-[(3-methoxyphenyl) amide]] | 54 |
| – | Cc1ccc(NC(=O)N2CCc3onc(C(=O)NCc4ccc(F)cc4)c3C2)cc1[N+](=O)[O-] [Example 14, 6,7-dihydro-4H-isoxazolo[4,5-c]pyridine-3,5-dicarboxylic acid 3-(4-fluorobenzyl amide) 5-[(4-methyl-3-nitro-phenyl) amide]] | 53 |
| – | CC(=O)c1cccc(NC(=O)N2CCc3onc(C(=O)NCc4ccc(C)o4)c3C2)c1 [Example 15, 6,7-dihydro-4H-isoxazolo[4,5-c]pyridine-3,5-dicarboxylic acid 5-[(3-acetyl-phenyl) amide] 3-[(5-methyl-furan-2-ylmethyl) amide]] | 58 |
| – | C#CCNC(=O)c1noc2c1CN(C(=O)Nc1ccc(C)c([N+](=O)[O-])c1)CC2 [Example 16, 6,7-dihydro-4H-isoxazolo[4,5-c]pyridine-3,5-dicarboxylic acid 5-[(4-methyl-3-nitro-phenyl) amide]3-prop-2-ynyl amide] | 55 |
| – | O=C(NCc1ccccc1)c1noc2c1CN(C(=O)Nc1ccccc1)CC2 [Example 17, 6,7-dihydro-4H-isoxazolo[4,5-c]pyridine-3,5-dicarboxylic acid 3-benzyl amide 5-phenyl amide] | 64 |
| – | C#CCNC(=O)c1noc2c1CN(C(=O)Nc1cccc(F)c1)CC2 [Example 19, 6,7-dihydro-4H-isoxazolo[4,5-c]pyridine-3,5-dicarboxylic acid 5-[(3-fluorophenyl) amide] 3-prop-2-ynyl amide] | 50 |
| 51 | CCOC(=O)CCNC(=O)c1noc2c1CN(C(=O)Nc1cc(OC)ccc1OC)CC2 [Example 20, 3-{[5-(2,5-dimethoxy-phenylcarbamoyl)-4,5,6,7-tetrahydro-isoxazolo[4,5-c]pyridine-3-carbonyl]-amino}-propionic acid ethyl ester] | – |
| – | CCOc1ccc(NC(=O)N2CCc3onc(C(=O)NCc4ccc(F)cc4)c3C2)cc1 [Example 21, 6,7-dihydro-4H-isoxazolo[4,5-c]pyridine-3,5-dicarboxylic acid 5-[(4-ethoxy-phenyl) amide] 3-(4-fluorobenzyl amide)] | 56 |
| – | COc1ccc(Cl)cc1NC(=O)N1CCc2onc(C(=O)NCCc3ccccc3)c2C1 [Example 22, 6,7-dihydro-4H-isoxazolo[4,5-c]pyridine-3,5-dicarboxylic acid 5-[(5-chloro-2-methoxyphenyl) amide] 3-(phenethyl amide)] | 60 |
| – | CCOC(=O)c1cccc(NC(=O)N2CCc3onc(C(=O)NCc4ccc(C)o4)c3C2)c1 [Example 23, 3-({3-[(5-methyl-furan-2-ylmethyl)-carbamoyl]-6,7-dihydro-4H-isoxazolo[4 5-c]pyridine-5-carbonyl}-amino)-benzoic acid ethyl ester] | 52 |
| 54 | CCC(C)(CC(=O)O)CC(=O)N1CCc2onc(C(=O)NCCOC)c2C1 (stereo not shown) [Example 26, 3-ethyl-5-[3-(2-methoxy-ethylcarbamoyl)-6,7-dihydro-4H-isoxazolo[4,5-c]pyridin-5-yl]-3-methyl-5-oxo-pentanoic acid] | – |
| 41 | CC(C)(C)OC(=O)NC(COCc1ccccc1)C(=O)N1CCc2onc(C(=O)NCc3cccnc3)c2C1 (stereo not shown) [Example 27, (1-benzyloxymethyl-2-oxo-2-{3-[(pyridin-3-ylmethyl)-carbamoyl]-6,7-dihydro-4H-isoxazolo[4,5-c]pyridin-5-yl}-ethyl)-carbamic acid tert-butyl ester] | – |
| 57 | O=C(O)COCC(=O)N1CCc2onc(C(=O)NCc3cccs3)c2C1 [Example 30, (2-oxo-2-{3-[(thiophen-2-ylmethyl)-carbamoyl]-6,7-dihydro-4H-isoxazolo[4,5-c]pyridin-5-yl}-ethoxy)acetic acid] | – |
| 57 | Cc1ccc(CNC(=O)c2noc3c2CN(C(=O)C(C)(C)CC(=O)O)CC3)o1 [Example 31, 3,3-dimethyl-4-{3-[(5-methyl-furan-2-ylmethyl)-carbamoyl]-6,7-dihydro-4H-isoxazolo[4,5-c]pyridin-5-yl}-4-oxo-butanoic acid] | – |
| – | O=C(c1noc2c1CN(S(=O)(=O)c1ccc(F)cc1)CC2)N1CCN(c2ncnc3sccc23)CC1 [Example 34] | 74 |
| 72 | CN(C)CCNC(=O)c1noc2c1CN(C(=O)C=Cc1ccccc1)CC2 [Example 36, 5-(3-phenyl-acryloyl)-4,5,6,7-tetrahydro-isoxazolo[4,5-c]pyridine-3-carboxylic acid (2-dimethylamino-ethyl) amide] | – |
| 61 | CN(C)CCNC(=O)c1noc2c1CN(C(=O)COc1ccccc1)CC2 [Example 37, 5-(2-phenoxy-acetyl)-4,5,6,7-tetrahydro-isoxazolo[4,5-c]pyridine-3-carboxylic acid (2-dimethylamino-ethyl) amide] | – |
| 76 | CN(C)CCNC(=O)c1noc2c1CN(C(=O)c1cc(C(C)(C)C)nn1C)CC2 [Example 41, 5-(5-tert-butyl-2-methyl-2H-pyrazole-3-carbonyl)-4,5,6,7-tetrahydro-isoxazolo[4,5-c]pyridine-3-carboxylic acid (2-dimethylamino-ethyl) amide] | – |
| 85 | CC(=O)Nc1ccc(C(=O)N2CCc3onc(C(=O)NCC4CC4)c3C2)cc1 [Example 45, 5-(4-acetylamino-benzoyl)-4,5,6,7-tetrahydro-isoxazolo[4,5-c]pyridine-3-carboxylic acid cyclopropylmethyl amide] | – |
| 79 | Cc1nn(-c2ccccc2)nc1C(=O)N1CCc2onc(C(=O)NCc3cccnc3)c2C1 [Example 46, 5-(5-methyl-2-phenyl-2H-[1,2,3]triazole-4-carbonyl)-4,5,6,7-tetrahydro-isoxazolo[4,5-c]pyridine-3-carboxylic acid (pyridin-3-ylmethyl) amide] | – |

| Compound | inhibition at 10 µM [%] | 5-HT uptake (rat), 10 μM, % inhibition [%] |
| --- | --- | --- |
| O=C(c1noc2c1CN(S(=O)(=O)c1ccc(F)cc1)CC2)N1CC=C(c2ccc(F)cc2)CC1 [Example 42, [5-(4-fluoro-benzenesulfonyl)-4,5,6,7-tetrahydro-isoxazolo[4,5-c]pyridin-3-yl]-[4-(4-fluorophenyl)-3,6-dihydro-2H-pyridin-1-yl]-methanone] | 69 | – |
